# Results reported in US6579857B1, “Combination cancer therapy comprising adenosine and deaminase enzyme inhibitors” (Evanston Northwestern Healthcare Research Institute, priority 1999, dated 2003).
# Like-named read-outs stand apart in the source and are kept apart here.
# How the values were obtained:
# [1] = test system: two cultured human colon carcinoma cell lines and Chinese hamster ovary (CHO K-I) cells; conditions: cited from earlier work; for toxicity when used alone: deoxycoformycin .001 to 1 μM, 2′-deoxyadenosine 0 to 500 μM
# neuronal cell = conditions: dose-dependent; cited from earlier work
# [2] = test system: OVCAR3 ovarian cancer cells; assay: MTT cell viability assay, OVCAR3; conditions: for viability at 10 µM: Homo sapiens, OVCAR-3, 60 h, read-out: cell viability as a percentage of control
# Method: For the experiments MCF7 breast cancer cells and OVCAR3 ovarian cancer cells (both obtained from the American Type Culture Collection (ATCC), Manassas, Va.) were cultured in RPMI 1640 media containing 10% fetal calf serum (Life Technologies, Gaithersburg, Md.). After 24 hours of culturing at 37° C. in 5% CO2, additional medium was added containing either adenosine (final concentration 10 μM), coformycin (final concentration 10 μM), or 10 μM each of adenosine and coformycin. Additional media alone was added to control cultures.
# The cells were cultured in these chemotherapeutic media for an additional 60 hours, at which time the viability of the cells were determined using an MTT assay (Celltitre 98 Aqueous 1, Promega, Madison, Wis.).
# The OVCAR3 ovarian cancer cell line was cultured as described in Example 1 for 24 hours and then treated with either 5 μM (final concentration) dipyridimole alone; 10 μM adenosine plus 10 μM coformycin alone; or the combination of these two treatments. In a control sample, culture media alone was added. The cultures were grown for an additional 60 hours and then analyzed for cell growth.
# The same experiments were repeating using 5 μM (final concentration) 5′-amino-5′-deoxyadenosine alone; 5 μM adenosine plus 10 μM coformycin alone; or the combination of these two treatments.
# The procedures described in Example 1 were repeated using the OVCAR 3 ovarian cancer cell line, and using as therapeutic agents 10 μM coformycin in combination with 10 μM of either adenosine, 2-chloroadenosine, 8-chloroadenosine, or 8-chloro-cAMP.
# MCF7 breast cancer cells = assay: MTT cell viability assay, MCF7; format: cell-based; conditions: Homo sapiens, read-out: cell viability as a percentage of control
# Method: (§1) Additional media alone was added to control cultures.
# mouse melanoma cells = conditions: cited from earlier work
# lymphoid cells = conditions: cited from earlier work
# fibroblasts = conditions: cited from earlier work
# [3] = test system: cell lines OVCAR 3, OVCAR 5, MCF7, and HT 29; assay: Adenosine with CF or dCF, tumor cell toxicity assay (Example 4); format: cell-based; conditions: 5 μM adenosine with 5 μM CF or 5 μM dCF; 60 hours
# Method: as §1
# The procedures described in Example 1 were repeated using cell lines OVCAR 3, OVCAR 5, MCF7, and HT 29 and using 5 μM adenosine in combination with either 5 μM CF or 5 μM dCF as the therapeutic combination of agents.
# [4] = molecular target: T1, adenosine deaminase (ADA) (Homo sapiens, UniProt P00813); conditions: Cha et al. 1975; Agarwal et al. 1977; cited from earlier work
# T1 sequence (P00813 1-363): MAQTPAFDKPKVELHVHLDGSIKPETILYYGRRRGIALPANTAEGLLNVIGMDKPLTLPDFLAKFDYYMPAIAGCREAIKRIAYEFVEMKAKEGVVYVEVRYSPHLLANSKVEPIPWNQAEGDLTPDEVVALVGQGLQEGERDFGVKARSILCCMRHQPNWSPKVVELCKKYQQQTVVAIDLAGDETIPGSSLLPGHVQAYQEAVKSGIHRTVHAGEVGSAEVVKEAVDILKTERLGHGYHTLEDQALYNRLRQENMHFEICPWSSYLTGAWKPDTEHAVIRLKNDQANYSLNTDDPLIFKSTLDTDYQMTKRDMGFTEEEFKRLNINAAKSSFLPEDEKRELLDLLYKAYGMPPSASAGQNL
# AMPDA = conditions: CF versus dCF; cited from earlier work
compound,measurement,setting,value
Nc1ncnc2c1ncn2[C@H]1C[C@H](O)[C@@H](CO)O1 [2′-deoxyadenosine],toxicity when used alone,[1],Neither compound was reported to be toxic when used alone
same,concentration required to approach full cell growth inhibition,[1]; in combination with deoxycoformycin,50 to 150 µM
same,concentration of maximal neuronal cell toxicity,neuronal cell,300 µM
NC[C@H]1O[C@@H](n2cnc3c(N)ncnc32)[C@H](O)[C@@H]1O [5′-amino-5′-deoxyadenosine],block of toxic effects of Ado/CF combination,"[2]; OVCAR3, 5 μM 5′-amino-5′-deoxyadenosine + 5 μM adenosine + 10 μM coformycin, 60 hours",essentially completely block
same,"cell growth, agent alone","[2]; OVCAR3, 5 μM 5′-amino-5′-deoxyadenosine alone, 60 hours",~80 % of control
Nc1ncnc2c1ncn2[C@@H]1O[C@H](CO)[C@@H](O)[C@H]1O [adenosine],viability at 10 µM,"MCF7 breast cancer cells; MCF7, 10 μM final concentration of each agent, 60 hours",> 100%
same,viability at 10 µM,[2],> 100%
same,concentration giving 80% growth inhibition,mouse melanoma cells,50 µM
same,concentration required for similar (80%) growth inhibition,lymphoid cells,5 µM
same,concentration required for similar (80%) growth inhibition,fibroblasts,400 µM
OC[C@H]1O[C@@H](n2cnc3c2N=CNC[C@H]3O)[C@H](O)[C@@H]1O [coformycin],viability at 10 µM,"MCF7 breast cancer cells; MCF7, 60 h",> 100%
same,viability at 10 µM,[2],> 100%
same,potentiation of adenosine toxicity,[3],consistently potentiated to toxicity of the adenosine to a greater extent than the deoxycoformycin
same,Ki,[4],0.025 nM
same,fold more potent inhibitor of AMPDA,AMPDA,50 fold
OC[C@H]1O[C@@H](n2cnc3c2NC=NC[C@H]3O)C[C@@H]1O [deoxycoformycin],toxicity when used alone,[1],Neither compound was reported to be toxic when used alone
OCCN(CCO)c1nc(N2CCCCC2)c2nc(N(CCO)CCO)nc(N3CCCCC3)c2n1 [dipyridamole],cell growth with protective agent added to Ado/CF,"[2]; OVCAR3, 5 μM dipyridimole + 10 μM adenosine + 10 μM coformycin, 60 hours",approximating that of the untreated control
same,cell growth as percentage of the control,"[2]; OVCAR3, 5 μM dipyridimole alone or 10 μM adenosine plus 10 μM coformycin alone, 60 hours",comparable to the control
